US11266709B2, “Methods for the regulation of matrix metalloproteinase expression” (Stealth BioTherapeutics Corp, priority 2013, dated 2022)
Square brackets hold non-standard residues; d marks the D form. Peptide text beside a SMILES is read from it. Dmt = Cc1cc(O)cc(C)c1C[C@H](N)C(=O)O

Columns and labels:
[1] = Survival during 6 weeks treatment after coronary occlusion; type: in vivo, rat; details: 74 rats randomized to peptide or water, following 6 weeks treatment
Method: Rats were anesthetized, ventilated, and a thoracotomy performed in the left 4th intercostal space. Temperature was maintained at 36° C. by placing the rats on a heating pad during the procedure. The pericardium was excised and the proximal left coronary artery isolated and permanently occluded with a suture. Coronary artery occlusion was confirmed by cyanosis and akinesis of the anterior wall of the ventricle. The chest was closed, air evacuated, and the rats allowed to recover. Analgesia was administered per the veterinarian. An echocardiogram was obtained at approximately 15 minutes post coronary artery occlusion. At 2 hours rats were randomized to receive chronic daily D-Arg-2′6′-Dmt-Lys-Phe-NH2 (delivered subcutaneously by an Alzet Osmotic Pump—3 mg/kg/day) or water. […] Heart rate and blood pressure were measured. A Millar catheter was inserted into the left ventricle and LV systolic pressure, LV end diastolic pressure, +dP/dt, and −dP/dt were measured. […] Postmortem LV volume was measured by filling the LV cavity with fluid and measuring the total fluid. […] Quantitative histologic analysis included: total circumference, scar circumference, non-infarcted wall circumference, total LV area, total LV cavity area, LV wall thickness (at several points), non-infarcted wall thickness; myocardial infarct expansion index. […]

[2] = test system: several mammalian cell types; details: energy-independent manner; cited from earlier work

With `Cc1cc(O)cc(C)c1C[C@H](NC(=O)[C@H](N)CCCNC(=N)N)C(=O)N[C@@H](CCCCN)C(=O)N[C@@H](Cc1ccccc1)C(N)=O` [D-Arg-2′6′-Dmt-Lys-Phe-NH2] (H-[dR][Dmt]KF-NH2) the deaths during treatment [1] was “no rats died”.
In the case of 2′,6′-Dmt-D-Arg-Phe-Lys-NH2, the “penetration of the plasma membrane” value [2] is given as “readily penetrates”.
